This experiment addresses Phosphodiesterase 1B (PDE1B). The experiment can be described thus: Measurement of PDE1B inhibition in vitro using IMAP phosphodiesterase assay kit. It is filed as biochemical, bovine. To be noted: PDE1 inhibitory activity, IMAP fluorescence polarization, cGMP-fluorescein substrate. From the text:
Measurement of PDE1B Inhibition in Vitro Using IMAP Phosphodiesterase Assay Kit
Phosphodiesterase 1B (PDE1B) is a calcium/calmodulin dependent phosphodiesterase enzyme that converts cyclic guanosine monophosphate (cGMP) to 5′-guanosine monophosphate (5′-GMP). PDE can also convert a modified cGMP substrate, such as the fluorescent molecule cGMP-fluorescein, to the corresponding GMP-fluorescein. The generation of GMP-fluorescein from cGMP-fluorescein can be quantitated, using, for example, the IMAP (Molecular Devices, Sunnyvale, Calif.) immobilized-metal affinity particle reagent.
Briefly, the IMAP reagent binds with high affinity to the free 5′-phosphate that is found in GMP-fluorescein and not in cGMP-fluorescein. […] Small fluorophores that are bound up in a large, slowly tumbling, complex can be distinguished from unbound fluorophores, because the photons emitted as they fluoresce retain the same polarity as the photons used to excite the fluorescence.
In the phosphodiesterase assay, cGMP-fluorescein, which cannot be bound to IMAP, and therefore retains little fluorescence polarization, is converted to GMP-fluorescein, which, when bound to IMAP, yields a large increase in fluorescence polarization (Δmp). Inhibition of phosphodiesterase, therefore, is detected as a decrease in Δmp. […]
A decrease in GMP concentration, measured as decreased Δmp, is indicative of inhibition of PDE activity.

Structures are written as SMILES. A value given as a limit tells only on which side of the number the result lay.

With `C/N=c1/c2c(Nc3ccccc3)n(Cc3ccc(-c4ccccn4)cc3)nc2n(CC(C)C)c(=O)n1C` [Example 2, 7-Isobutyl-5-methyl-4-(methylimino)-3-(phenylamino)-2-(4-(pyridin-2-yl)benzyl)-4,5-dihydro-2H-pyrazolo[3,4-d]pyrimidin-6(7H)-one], the IC50 was less than 200 nM.
